# From publication PMC7896091, “Synthesis of novel phytol-derived γ-butyrolactones and evaluation of their biological activity” (Scientific Reports, 2021)
# What was measured:
# Myzus persicae [1] = experiment: Aphid settling (choice test) on treated vs control leaves of Brassica rapa subsp. pekinensis; assay type: in vivo; conditions: 0.1% solution in 70% ethanol, mean (± SD), n = 8, 20 aphids/replicate
# Method: (§1) The peach potato aphids Myzus persicae (Sulzer) and the Chinese cabbage Brassica rapa subsp. pekinensis (Lour.) Hanelt were reared in laboratory at 20 °C, 65% r.h., and L16:8D photoperiod. One to seven days old apterous females of M. persicae and 3-week old plants with 4–5 fully developed leaves were used for experiments. M. persicae were obtained from the laboratory culture maintained at the Department of Botany and Ecology for many generations since 2000. All experiments were carried out under the same conditions of temperature, relative humidity, and photoperiod. The bioassays were started at 10–11.a.m. Each compound was dissolved in 70% ethanol to obtain the recommended 0.1% solution[40]. All compounds were applied on the adaxial and abaxial leaf surfaces by immersing a leaf in the ethanolic solution of a given compound for 30 s.[20]. Control leaves of similar size were immersed in 70% ethanol that was used as a solvent for the studied compounds. Experiments were performed 1 h after the compounds application to allow the evaporation of the solvent. Every plant and aphid were used only once.
# This bioassay allows the study of aphid host preferences under semi-natural conditions. In the present study, aphids were given free choice between control and treated excised leaves that were placed in a Petri dish. Aphids were placed in the dish equidistance from treated and untreated leaves, so that aphids could choose between treated (on one half of a Petri dish) and control leaves (on the other half of the dish). […] Each experiment was replicated 8 times (n = 8 replicates, 20 viviparous apterous females/replicate). Aphids that were moving or not on any of the leaves were not counted.
# The data of the choice-test were analyzed using Student’s t-test (STATISTICA 13.1. package). […] If aphids settled mainly on the control leaf (p < 0.05), the compound tested in the respective choice-test was stated a deterrent. From the data thus obtained the relative index of deterrence (DI) was calculated: DI = (C − T/C + T) where C was the number of aphids settled on control leaf, T was the number of aphids settled on the leaf treated with the tested compound. The value of DI ranged between 1 (ideal deterrent) and − 1 (ideal attractant)[41].
# Myzus persicae [2] = experiment: EPG monitoring of aphid probing and feeding (no-choice test); assay type: in vivo; conditions: 8-h EPG
# Method: as §1
# Aphid probing and the phloem sap uptake by M. persicae was monitored using the technique of electronic registration of aphid probing in plant tissues, known as EPG (= Electrical Penetration Graph), that is frequently employed in insect–plant relationship studies considering insects with sucking-piercing mouthparts[42]–[44]. In this experimental set-up, aphid and plant are connected to electrodes and thus made parts of an electric circuit, which is completed when the aphid inserts its stylets into the plant. Weak voltage is supplied in the circuit, and all changing electric properties are recorded as EPG waveforms that can be correlated with aphid activities and stylet position in plant tissues[45],[46]. The parameters describing aphid behaviour during probing and feeding, such as total time of probing, proportion of phloem patterns E1 and E2, number of probes, etc., are good indicators of plant suitability or interference of probing by chemical or physical factors in individual plant tissues[44]–[46]. In the present study, aphids were attached to a golden wire electrode with conductive silver paint (epgsystems. eu) and starved for 1 h prior to the experiment. Probing behaviour of 12 apterous females/studied compound and control was monitored for 8 h continuously with Giga-4 and Giga-8 DC EPG with 1 GΩ of input resistance recording equipment (EPG Systems, Wageningen, The Netherlands). Each aphid was given access to a freshly prepared plant and each aphid/plant combination was used only once. Various behavioural phases were labelled manually using the Stylet + software (www.epgsystems.eu). The following aphid behaviours were distinguished: no penetration (waveform 'np' – aphid stylets outside the plant), pathway phase—penetration of non-phloem tissues (waveforms 'ABC'), phloem phase (salivation into sieve elements, waveform ‘E1’ and ingestion of phloem sap, waveform ‘E2’), and xylem phase (ingestion of xylem sap, waveform 'G'). Waveform ‘G’ occurred rarely irrespective of the treatment. Therefore, in all calculations the xylem phase was added to the pathway phase and termed as probing in non-phloem tissues. The E1/E2 transition patterns were included in E2. Waveform patterns that were not terminated before the end of the experimental period (8 h) were not excluded from the calculations. The parameters derived from EPG recordings were analyzed according to their frequency and duration in configuration related to activities in peripheral and vascular tissues.
# All statistical calculations related to data of the no-choice test were performed using StatSoft, Inc. (2014) STATISTICA (data analysis software system), version 12, www.statsoft.com. […]
# [3] = system: caspase-3/7 in MV4-11 cells; experiment: Caspase-3/7 activity determination (Ac-DEVD-ACC substrate); assay type: cell-based, human; conditions: MV4-11, 75 µM, 72 h
# Method: Caspase-3/7 activity determination was performed according to the protocol previously described. The MV4-11 cells were seeded at the density of 1 × 10^5 cells/mL of culture medium on 24-well plates (Sarstedt, Germany) to the final volume of 2 mL. The cells were exposed to the test compounds at concentrations 75 μM or campthothecin (0.05 μg/mL) as a positive control, for 72 h. After 72 h of the incubation, the cells were collected and centrifuged (5 min., 4 °C, 250×g). Cells were suspended in 50 µL of ice-cold lysis buffer (50 mM HEPES, 10% (w/v) sucrose, 150 mM NaCl, 2 mM EDTA, 1% (v/v) Triton X-100, pH 7.3, IIET, Poland) and incubated 30 min. at 4 °C. After the incubation, 40 µL of each sample was transferred to a white, 96-well plate (Corning, USA) containing 160 µL of the reaction buffer (20 mM HEPES, 10% sucrose, 100 mM NaCl, 1 mM EDTA, 10 mM DTT, 0.02% Trition X-100, pH 7.3) (IIET, Wroclaw, Poland) with 9 µM Ac-DEVD-ACC fluorogenic substrate (λex = 360 nm, λem = 460 nm). The fluorescence increase correlated with the caspase-3/7 level was continuously recorded at 37 °C for 120 min using a Biotek Synergy H4 (Biokom, Warsaw, Poland). Compounds were tested in duplicates in single experiment and each experiment was repeated at least three times independently. Results were normalized to the number of cells in each well and are reported as mean relative caspase-3/7 activity compared to untreated control sample ± SD.
# MV4-11 cells = experiment: Antiproliferative activity, MTT assay; assay type: cell-based, human
# Method: (§2) Human biphenotypic B myelomonocytic leukemia MV4-11, human colon cancer LoVo cell line and normal mouse fibroblast BALB/3T3 cells were obtained from American Type Culture Collection (Rockville, Maryland, USA), human lung carcinoma A549 cells were obtained from European Collection of Authenticated Cell Cultures (UK). All the cell lines are being maintained at the Hirszfeld Institute of Immunology and Experimental Therapy, PAS, Wroclaw, Poland and were cultured according the procedure described before.
# (§3) Cell lines were cultured according to the protocol described before. MV4-11 cells were cultured in RPMI 1640 medium (Gibco, UK) with 1.0 mM sodium pyruvate, and 10% fetal bovine serum (FBS) (all from Sigma-Aldrich, Germany). A549, LoVo and LoVo/DX cells were cultured in RPMI 1640 + Opti-MEM (1:1) (both from Gibco, UK) supplemented with 5% fetal bovine serum, 1.0 mM sodium pyruvate (LoVo and LoVo/DX cells) (all from Sigma Aldrich Germany) and 0.1 μg/mL doxorubicin chloride (Accord) (only LoVo/DX cells). BALB/3T3 cells in Dulbecco medium (IIET, Poland) supplemented with 10% fetal bovine serum (Sigma-Aldrich, Germany). All culture media were supplemented with 2 mM L-glutamine (Sigma-Aldrich, Germany), 100 units/mL penicillin, and 100 µg/mL streptomycin (both from Polfa Tarchomin S.A., Poland). All cell lines were grown at 37 °C with 5% CO2 humidified atmosphere.
# (§4) The solutions of the compounds (50 mM) were prepared by dissolving the substances in DMSO (Sigma Aldrich, Germany). Then the tested compounds were diluted in culture medium to reach the final concentrations of 625, 125, 25 and 5 μM. Before adding of the tested compounds (24 h prior), the cells were plated in 96-well plates (Sarstedt, Germany) at a density of 1 × 10^4 or 0.5 × 10^4 (A549) cells per well. The assay was performed after 72 h of exposure to 625, 125, 25 and 5 μM of the tested agents. The in vitro cytotoxic effect of all agents was examined using the MTT (MV4-11) or SRB assay, described previously. The results were calculated as an IC50 (inhibitory concentration 50%) the concentration of tested agent, which is cytotoxic for 50% of the cancer cells. Each compound in each concentration was tested in triplicate in a single experiment, which was repeated 3–5 times.
# A549 cells = experiment: Antiproliferative activity, SRB assay; assay type: cell-based, human
# Method: as §2, §3, §4
# LoVo cells = experiment: Antiproliferative activity, SRB assay; assay type: cell-based, human; conditions: for IC50: 72 h exposure, SRB, mean ± SD, n.a = no activity in concentration of 5, 25, 125, 625 μM
# Method: as §2, §3, §4
# LoVo/DX cells = experiment: Antiproliferative activity, SRB assay, doxorubicin resistant subline; assay type: cell-based, human
# Method: Cell lines were cultured according to the protocol described before. […] All culture media were supplemented with 2 mM L-glutamine (Sigma-Aldrich, Germany), 100 units/mL penicillin, and 100 µg/mL streptomycin (both from Polfa Tarchomin S.A., Poland). All cell lines were grown at 37 °C with 5% CO2 humidified atmosphere. The solutions of the compounds (50 mM) were prepared by dissolving the substances in DMSO (Sigma Aldrich, Germany). […] The in vitro cytotoxic effect of all agents was examined using the MTT (MV4-11) or SRB assay, described previously. […] Each compound in each concentration was tested in triplicate in a single experiment, which was repeated 3–5 times.
# BALB/3T3 cells = experiment: Toxicity towards normal fibroblasts, SRB assay; assay type: cell-based; conditions: normal mouse fibroblasts, 72 h exposure, mean ± SD, n.a = no activity in concentration of 5, 25, 125, 625 μM
# Method: as §2, §3, §4
# [4] = 0.1% solution, mean ± SE, n = 12
# [5] = activities in non-phloem tissues, mean ± SE, n = 10-12
# [6] = activities in sieve elements, mean ± SE, n = 10-12
# [7] = 72 h exposure, SRB, mean ± SD, n.a = no activity in concentration of 5, 25, 125, 625 μM
smiles,measurement,setting,value
"C=CC(C)(CCCC(C)CCCC(C)CCCC(C)C)CC(=O)OCC (stereo not shown) [compound 2, ethyl 3,7,11,15-tetramethyl-3-vinylhexadecanoate]",Mean number of aphids settled on treated (test) leaf,Myzus persicae [1]; 1 h after access,10.8 (± 1.7)
same,Mean number of aphids settled on treated (test) leaf,Myzus persicae [1]; 2 h after access,8.9 (± 0.9)
same,Mean number of aphids settled on treated (test) leaf,Myzus persicae [1]; 24 h after access,9.6 (± 1.6)
same,Mean duration of probing (C + G + E),Myzus persicae [2]; [4],1.4 ± 0.6 h
same,Number of probes,Myzus persicae [2]; [4],17.6 ± 4.1
same,Total duration of pathway (C),Myzus persicae [2]; [4],4.7 ± 0.8 h
same,Total duration of phloem phase (E),Myzus persicae [2]; [4],2.4 ± 0.8 h
same,Total duration of probing (C + G + E),Myzus persicae [2]; [4],7.3 ± 0.2 h
same,Number of probes before first phloem phase,Myzus persicae [2]; [5],14.9 ± 4.1
same,Time from first probe to first phloem phase,Myzus persicae [2]; [5],2.9 ± 0.8 h
same,Duration of first phloem phase,Myzus persicae [2]; [6],2.0 ± 0.8 h
same,Total duration of phloem salivation E1,Myzus persicae [2]; [6],2.4 ± 1.2 min
same,Total duration of phloem sap ingestion E2,Myzus persicae [2]; [6],2.4 ± 0.8 h
same,Number of probes < 3 min,"Myzus persicae [2]; before first phloem phase, mean ± SE, n = 10-12",9.1 ± 2.7
same,Proportion of salivation in phloem phase,Myzus persicae [2]; (duration of E1 / duration of E1 + E2)*100,7.9%
same,Proportion of phloem phase in total probing,Myzus persicae [2]; index = duration of phloem phase E / duration of probing C + G + E,32.0%
same,Increase of caspase-3/7 activity compared to the control,[3],about 1.5 times
"N.N.[Cl][Pt][Cl] [Cisplatin, reference compound]",IC50,"MV4-11 cells; 72 h exposure, MTT, mean ± SD, n.a = no activity in concentration of 5, 25, 125, 625 μM",2.88 ± 0.83 µM
same,"Selectivity index SI, MV4-11",MV4-11 cells; SI = IC50 BALB/3T3 / IC50 MV4-11,1.54
same,IC50,A549 cells; [7],3.97 ± 1.08 µM
same,"Selectivity index SI, A549",A549 cells; SI = IC50 BALB/3T3 / IC50 A549,1.12
same,IC50,LoVo cells,5.55 ± 0.12 µM
same,"Selectivity index SI, LoVo",LoVo cells; SI = IC50 BALB/3T3 / IC50 LoVo,0.80
same,IC50,LoVo/DX cells; [7],3.45 ± 1.01 µM
same,IR (index of resistance),"LoVo/DX cells; IR = IC50 against resistant LoVo/DX / IC50 against non-resistant LoVo, 0 < IR < 2 able to overcome drug resistance",0.62
same,"Selectivity index SI, LoVo/DX",LoVo/DX cells; SI = IC50 BALB/3T3 / IC50 LoVo/DX,1.29
same,IC50,BALB/3T3 cells,4.44 ± 2.36 µM
COc1cccc2c1C(=O)c1c(O)c3c(c(O)c1C2=O)C[C@@](O)(C(=O)CO)C[C@@H]3O[C@H]1C[C@H](N)[C@H](O)[C@H](C)O1 [Doxorubicin],IC50,"LoVo cells; Homo sapiens, LoVo",0.12 ± 0.01 µM
